Experimental data from patent US6291657A (priority 1993, dated 2001).

Columns and labels:
β-glucosidases = details: Legler & Pohl, 1986; cited from earlier work
[1] = biological target: UDP-glucose:N-acylsphingosine glucosyltransferase; test: Inhibition of UDP-glucose:N-acylsphingosine glucosyltransferase; assay type: biochemical, rat brain, mouse macrophage (WEHI-3B); details: rat brain or mouse macrophage homogenates; read-out: IC50
[2] = system: N-linked oligosaccharide processing of gp120 in CHO cells (α-glucosidases I and II); details: previously tested [Karlsson et al.]; cited from earlier work
[3] = system: oligosaccharide biosynthesis in BW5147 cells; test: Glycopeptide analysis by Con A-SEPHAROSE chromatography, BW5147 cells; assay type: cell-based, murine
WEHI-3B cell lysosomes = test: Transmission electron microscopy of lysosomes of CBE treated WEHI-3B cells; assay type: cell-based, murine; details: transmission electron microscopy (FIG. 6)
α-glucosidase I = details: cell culture systems, Karlsson et al.; cited from earlier work
HL-60 cells = test: Cytotoxicity in the dose range tested; assay type: cell-based, human
[4] = system: oligosaccharide biosynthesis in HL-60 cells; test: Glycopeptide analysis by Con A-SEPHAROSE chromatography, HL-60 cells; assay type: cell-based, human
[5] = system: N-linked oligosaccharide processing of gp120 in CHO cells (α-glucosidases I and II); test: Endo H sensitivity of gp120 expressed in CHO cells (N-linked oligosaccharide processing); assay type: cell-based, Chinese hamster; details: 0.5 mM or 5 mM (FIG. 7)
Method: The arrows indicate the molecular weight of the untreated gp120 (120 kDa) and post endo H digestion (60 kDa). An additional band of low molecular weight (approximately 60 kDa) was present in some lanes and is a non-specific protein precipitated by the solid phase matrix.
The culture of CHO cells expressing soluble recombinant gp120 (from Dr. P. Stevens, MRC AIDS Directed Programme Reagent Project) and the radiolabelling of these cells was carried out by conventional procedure as described by Karlsson et al., J. Biol. Chem. 268, 570-576 (1993). Briefly, CHO cells were harvested mechanically, washed three times with phosphate buffered saline, 0.1M pH 7.2 (PBS) and resuspended in methionine- and cysteine-free RPMI-1640 medium (ICN-Flow Laboratories, High Wycombe, Bucks, U.K.) supplemented with 1% dialysed FCS. Cells (10^7 /ml) were preincubated in the presence or absence of NB-DNJ or NB-DGJ for 1 hr prior to the addition of 100 μCi/ml Tran^35 S-label (ICN-Flow) for 4 hr. The supernatants were collected and concentrated tenfold using a 30 kDa cut-off membrane (Amicon, Danvers, Mass., U.S.A.).
Immunoprecipitations were performed by conventional procedure as described by Karlsson supra. Supernatants were incubated with the mAb ABT 1001 monoclonal antibody (American Biotechnologies Inc., Cambridge, Mass., U.S.A.) at 0.5 μg/100 μl of supernatant for 30 min. at room temperature followed by sheep anti-mouse IgG1-coated magnetic beads (Dynal Ltd., Wirral, Merseyside, U.K., 1.2×10^7 beads per sample) for 1 hr. at 4° C. The beads were washed three times with 2% TRITON® X-100 in PBS and three times with PBS. Gp120 was eluted in […] reducing SDS-PAGE sample buffer with heating (95° C., 5 min.). Each sample was divided into two equal aliquots and 25 μl of dH2 O added to give a final volume of 50 μl. To one half of each sample 2 μl of endoglycosidase H (endo H, 1 unit/ml, Boehringer Mannheim Ltd., Lewes, Sussex, U.K.) was added and the other half left untreated. […]

[6] = system: cholera toxin binding sites on H9 cells; assay type: cell-based, human; details: h9 cells, 4320 min
[7] = system: glucocerebrosidase in WEHI-3B cells; details: WEHI-3B cells in the absence of CBE; cited from earlier work
[8] = system: glycolipid biosynthesis in HL-60 cells; test: Inhibition of glycolipid biosynthesis in HL-60 cells, [14C]-palmitic acid labelling, 1D-TLC; assay type: cell-based, human;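 further: cells cultured 24 h with or without test compound, total cellular lipids resolved by one-dimensional TLC and detected by autoradiography, inhibition shown as missing Glc-Cer and gangliosides versus untreated cells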
[9] = system: glycolipid and phospholipid species in HL-60 cells; test: 2D-TLC analysis of total HL-60 lipids labelled with [14C]-palmitic acid; assay type: cell-based, human; details: 2D-TLC (FIG. 2)
Method: 2D-TLC separation was made of total HL-60 lipids labelled with [^14 C]-palmitic acid. Cells were treated with either 0.5 mM NB-DNJ or NB-DGJ or untreated (UT). Lipids were assigned as follows (untreated cells, lefthand panel, FIG. 2A): 1, gangliosides; 2, lysophospatidylcholine; 3, ceramide phosphorylcholine; 4, ceramide phosphorylethanolamine; 5, phospatidylcholine; 6, phosphatidylinositol; 7, phosphatidylethanolamine; 8, phosphatidylglycerol; 9, diglycosylceramide; 10, monoglycosylceramide; 11, cholesterol/fatty acids/neutral lipids; N and N* are unknowns; and 0 is the sample origin. Following NB-DNJ and NB-DGJ treatment (middle and righthand panels, FIGS. 2B and 2C, respectively) species 1 (gangliosides);9 (diglycosylceramide); 10 (monoglycosylceramide) and N* (unknown) were absent. The radiolabelled lipids were visualized by autoradiography.
HL-60 cells were cultured by conventional procedure as previously described by Platt et al., Eur. J. Biochem. 208, 187-193 (1992). HL-60 cells at 5×10^4 cells/ml were cultured in the presence or absence of imino sugars for 24 hr. For labelling, the two dimensional thin layer chromatography (2D-TLC) conventional method of Butters and Hughes was followed [In Vitro 17, 831-838 (1981)]. Briefly, [^14 C]-palmitic acid (56.8 mCi/mmol, ICN/Flow) was added as a sonicated preparation in foetal calf serum (FCS, Techgen, London, U.K., 0.5 μCi/ml) and the cells cultured for a further 3 days maintaining the imino sugars in the medium. The cells were harvested, washed three times with phosphate buffered saline (PBS), extracted in 1 ml chloroform:methanol (2:1 v/v) and separated by 1 dimensional TLC, loading equal counts (1D-TLC, chloroform:methanol:water (65:25:4)). For two dimensional separations the one dimensional separation was performed as described above, the plate dried overnight under vacuum and separated in the second dimension using a solvent of tetrahydrofuran: dimethoxymethane:methanol:water (10:6:4:1). Plates were air dried and exposed to Hyperfilm-MP high performance autoradiography film (Amersham).

α-glucosidase I and II = test: Inhibition of purified processing α-glucosidase I and II; assay type: biochemical; details: mixture of purified α-glucosidases I and II
Method: Porcine liver α-glucosidase I and rat liver α-glucosidase II were purified to homogeneity and assayed by conventional procedure using a [^14 C]-glucose labelled Glc3 Man9 GlcNAc2 substrate as previously described by Karlsson et al., J. Biol. Chem. 268, 570-576 (1993).
Enzymes were assayed according to procedure described hereinbefore using
The data from FIG. 8 were […]

Structure (SMILES): CCCCCCCN1C[C@H](O)[C@@H](O)[C@@H](O)[C@H]1CO [N-heptyldeoxygalactonojirimycin]
- affinity towards certain β-glucosidases (β-glucosidases): modest increase in the affinity

Structure (SMILES): CCCCN1C[C@H](O)[C@@H](O)[C@H](O)[C@H]1CO [NB-DNJ, N-Butyldeoxynojirimycin]
- IC50 [1]: 2.95 µM
- endo H sensitivity of high mannose oligosaccharides on gp120 [2]: fully sensitive to endo H
- Total 3H-mannose recovered [3]: 686026 cpm
- Bi-antennary ([3]; percentage of radiolabelled glycopeptides eluted with 10 mM methylglucoside): 4.9%
- Oligo-mannose & hybrid ([3]; percentage of radiolabelled glycopeptides eluted with 500 mM methylmannoside): 68.3%
- Tetra- & Tri-antennary ([3]; percentage of radiolabelled glycopeptides non-bound): 26.8%
- glycolipid accumulation in lysosomes (WEHI-3B cell lysosomes): prevented the glycolipid accumulation
- concentration for α-glucosidase I inhibition (α-glucosidase I): 0.5 mM
- cytotoxicity (HL-60 cells): non-cytotoxic
- Total 3H-mannose recovered ([4]; HL-60): 913095 cpm
- Bi-antennary ([4]; HL-60, percentage of radiolabelled glycopeptides eluted with 10 mM methylglucoside): 20.0%
- Oligo-mannose & hybrid ([4]; HL-60, percentage of radiolabelled glycopeptides eluted with 500 mM methylmannoside): 60.5%
- Tetra- & Tri-antennary ([4]; HL-60, percentage of radiolabelled glycopeptides non-bound): 19.5%
- glycopeptide profile by Con A-SEPHAROSE chromatography ([4]; HL-60 and BW5147): changes the affinity of glycopeptides
- proportion of unbound glycans (tetra- and tri-antennary species) ([4]; HL-60 and BW5147): decreases
- proportion of high mannose/hybrid glycans tightly bound to Con A-SEPHAROSE ([4]; HL-60 and BW5147, eluted with 500 mM methylmannoside): increase
- endo H sensitivity of gp120 N-linked glycans [5]: fully endo H sensitive
- reduction in cholera toxin binding [6]: approximately 90%
- Glc-Cer accumulation [7]: accumulated Glc-Cer
- lipid species whose biosynthesis was inhibited ([8]; HL-60, 500 μM, 1D-TLC): inhibited the biosynthesis of Glc-Cer, gangliosides and an unknown lipid species
- inhibition of glycolipid biosynthesis ([8]; HL-60, 500 μM, 1D-TLC (FIG. 1)): specifically inhibited glycolipid biosynthesis
- effect of N-alkyl chain length on inhibition of glycolipid biosynthesis (loss of detectable Glc-Cer) ([8]; HL-60, 0.5 mM, 1D-TLC (FIG. 4)): completely inhibited glycolipid biosynthesis
- minimal effective concentration ([8]; Homo sapiens, HL-60, 1D-TLC (FIG. 3), partial inhibition, read-out: concentrations as low as which partial inhibition occurred): 0.5 to 5 µM
- gangliosides, unknown lipid (N*), mono and dihexaside species following treatment ([9]; HL-60, 0.5 mM): absent
- depletion of glycolipid species ([9]; HL-60, 500 μM): total depletion of glycolipid species
- IC50 (α-glucosidase I and II): 0.36 µM
